Experimental data as given in the NIST ThermoML archive (doi:10.1016/j.jct.2005.03.012).
Numbers after ± are expanded uncertainties.

Experiment: molar heat capacity at constant pressure
Details: Liquid, Flow calorimetry

CO [methanol]
molar heat capacity at constant pressure [J/K/mol]
Details | 248.15 K | 273.15 K | 298.15 K | 323.15 K | 348.15 K | 373.15 K | 398.15 K | 423.15 K | 473.15 K
500 kPa | 74.02 ± 0.26 | 77.03 ± 0.26 | 81.39 ± 0.29 | 86.87 ± 0.29 | 93.66 ± 0.32 | 101.83 ± 0.35 | – | – | –
1000 kPa | 74.02 ± 0.26 | 77 ± 0.26 | 81.35 ± 0.29 | 86.8 ± 0.29 | 93.59 ± 0.32 | 101.76 ± 0.35 | 111.86 ± 0.38 | – | –
2500 kPa | 73.95 ± 0.26 | 76.93 ± 0.26 | 81.19 ± 0.29 | 86.64 ± 0.29 | 93.43 ± 0.32 | 101.41 ± 0.35 | 111.28 ± 0.38 | 122.98 ± 0.42 | –
5000 kPa | 73.89 ± 0.26 | 76.84 ± 0.26 | 81.07 ± 0.29 | 86.45 ± 0.29 | 93.18 ± 0.32 | 101 ± 0.35 | 110.38 ± 0.38 | 121.41 ± 0.42 | 162.32 ± 0.54
7500 kPa | 73.79 ± 0.26 | 76.8 ± 0.26 | 81.03 ± 0.29 | 86.29 ± 0.29 | 92.92 ± 0.32 | 100.64 ± 0.35 | 109.58 ± 0.35 | 120.03 ± 0.42 | 152.94 ± 0.51
10000 kPa | 73.79 ± 0.26 | 76.77 ± 0.26 | 80.91 ± 0.26 | 86.13 ± 0.29 | 92.73 ± 0.32 | 100.23 ± 0.32 | 108.97 ± 0.35 | 118.84 ± 0.38 | 146.91 ± 0.48
12500 kPa | 73.76 ± 0.26 | 76.74 ± 0.26 | 80.91 ± 0.26 | 86 ± 0.29 | 92.41 ± 0.32 | 99.97 ± 0.32 | 108.33 ± 0.35 | 117.85 ± 0.38 | 142.75 ± 0.48
